Laboratory results from ChEMBL document CHEMBL5233249, “Recent advancements in the development of heterocyclic anti-inflammatory agents” (Eur J Med Chem, 2020).
Converted amounts (≈) assume the structure as drawn.

How the values were obtained:
RAW264.7 [1] = experiment: Anti-inflammatory activity in mouse RAW264.7 cells assessed as inhibition of LPS-induced reduction in TNFalpha production; format: functional, cell-based
RAW264.7 [2] = experiment: Anti-inflammatory activity in mouse RAW264.7 cells assessed as inhibition of LPS-induced TNFalpha production measured after 24 hrs by EIA method relative to control; format: functional; set-up: scale not given: the % may be the effect or the level left
[3] = Cytotoxicity against mouse RAW264.7 cells assessed as decreased cell viability measured after 24 hrs by MTT assay; format: toxicity, cell-based
BV-2 = experiment: Antineuroinflammatory activity against mouse BV-2 cells assessed as inhibition of LPS-induced NO production by Griess assay relative to control; format: functional; set-up: scale not given: the % may be the effect or the level left
RAW264.7 [4] = experiment: Anti-inflammatory activity in mouse RAW264.7 cells assessed as decreased production of LPS-induced TNFalpha production; format: functional; conditions: read-out: ED50 (the source's name)
Rattus norvegicus [5] = experiment: Anti-inflammatory activity in Carrageenan-induced paw edema in Wistar albino rat assessed as inhibition of paw edema measured after 6 hr relative to control; format: functional
RAW264.7 [6] = experiment: Anti-inflammatory activity in mouse RAW264.7 cells assessed as decreased production of LPS-induced IL-1beta production; format: functional
RAW264.7 [7] = experiment: Anti-inflammatory activity in mouse RAW264.7 cells assessed as decreased production of LPS-induced IL-6 production; format: functional
Rattus norvegicus [8] = experiment: Anti-inflammatory activity in Carrageenan-induced paw edema in Wistar albino rat assessed as inhibition of paw edema measured after 1 hr relative to control; format: functional
[9] = target: T1, Prostaglandin G/H synthase 2 (Homo sapiens, UniProt P35354); experiment: Inhibition of COX-2 (unknown origin) at 0.1 uM
T1 sequence (P35354 whole entry): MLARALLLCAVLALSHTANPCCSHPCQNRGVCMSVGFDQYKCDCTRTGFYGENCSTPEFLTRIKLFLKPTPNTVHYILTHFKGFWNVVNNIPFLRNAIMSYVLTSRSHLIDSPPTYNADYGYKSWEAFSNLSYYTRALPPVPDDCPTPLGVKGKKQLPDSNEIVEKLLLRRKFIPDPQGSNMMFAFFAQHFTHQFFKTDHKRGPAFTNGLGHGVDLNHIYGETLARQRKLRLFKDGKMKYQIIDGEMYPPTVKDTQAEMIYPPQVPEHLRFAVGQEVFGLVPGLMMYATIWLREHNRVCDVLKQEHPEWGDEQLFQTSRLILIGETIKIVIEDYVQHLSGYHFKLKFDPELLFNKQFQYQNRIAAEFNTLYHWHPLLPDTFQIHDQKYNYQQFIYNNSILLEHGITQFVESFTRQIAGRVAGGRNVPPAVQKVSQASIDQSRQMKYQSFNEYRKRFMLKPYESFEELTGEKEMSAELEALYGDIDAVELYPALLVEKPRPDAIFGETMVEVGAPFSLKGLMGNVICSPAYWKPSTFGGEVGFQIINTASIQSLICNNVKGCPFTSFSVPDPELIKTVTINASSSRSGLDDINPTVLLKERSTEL

Rattus norvegicus [10] = experiment: Anti-inflammatory activity in Carrageenan-induced paw edema in Wistar albino rat assessed as inhibition of paw edema measured after 3 hr relative to control; format: functional

IC50 (RAW264.7 [1]) [µM]	EC50 (RAW264.7 [4]) [µg/mL]	IC50 [9] [µM]	SMILES	Activity (RAW264.7 [2]) [%]	CC50 at 24 h [3] [µM]	Activity (BV-2) [%]	inhibition (INH) (Rattus norvegicus [5]) [%]	Activity (RAW264.7 [6]) [ng/mL]	Activity (RAW264.7 [7]) [ng/mL]	inhibition (INH) (Rattus norvegicus [8]) [%]	inhibition (INH) (Rattus norvegicus [10]) [%]
5.2	–	–	CCc1ccc(C/C=C2\CCOc3cc(OC)cc(OC)c3C2=O)cc1	96.4	43.6	87.9	–	–	–	–	–
–	0.0559 (≈ 0.0744 µM)	53.1	COc1ccc(C2=NNC(S)C2N(CN2C(=O)/C(=C\c3nnc(-c4ccc(-c5ccc(OC)cc5)cc4)s3)c3ccccc32)C(=O)c2ccccc2)cc1 (stereo unspecified)	–	–	–	57.14	35.1	102.1	50	52.63
